Reference: patent US20100120690A1, “Polypeptides Having Antimicrobial Activity and Polynucleotides Encoding Same” (Novozymes Adenium Biotech A/S, priority 2005, published 2010)

Columns and labels:
Type in all cases: cell-based
[1] = tested on: Staphylococcus aureus, ATCC 29213; experiment: MIC, NCCLS/CLSI guidelines (Example 5), strain A; settings: relative to wildtype Plectasin; average of two independent experiments
Method: (§1) Plectasin wild-type (SEQ ID NO: 1) and several variants of Plectasin were expressed and purified. The Minimal Inhibitory Concentration (MIC) was determined to test for their antimicrobial activity following the NCCLS guidelines from CLSI (Clinical and Laboratory Standards Institute; formerly known as National Committee for Clinical and Laboratory Standards).
(§2) The peptides were tested against the following strains: • A: Staphylococcus aureus, ATCC 29213; • B: Staphylococcus aureus, ATCC 25923; • C: Staphylococcus aureus, ATCC 29737; • D: Staphylococcus aureus, MRSA ST5 (2001), multi-resistant clinical human isolate from Statens Serum Institut, Denmark; • E: Staphylococcus aureus, MRSA ST80 (2003), multi-resistant clinical human isolate from Statens Serum Institut, Denmark.
(§3) All MIC values represent an average of two independent experiments; and all results in Table 5 are expressed relative to wildtype Plectasin:
(§4) 0: >100% of Plectasin wildtype MIC; 1: 80-100% of Plectasin wildtype MIC; 2: 50-80% of Plectasin wildtype MIC; 3: <50% of Plectasin wildtype MIC.

[2] = tested on: Staphylococcus aureus, ATCC 25923; experiment: MIC, NCCLS/CLSI guidelines (Example 5), strain B; settings: relative to wildtype Plectasin; average of two independent experiments
Method: as §1, §2, §3, §4

[3] = tested on: Staphylococcus aureus, ATCC 29737; experiment: MIC, NCCLS/CLSI guidelines (Example 5), strain C; settings: relative to wildtype Plectasin; average of two independent experiments
Method: as §1, §2, §3, §4

[4] = tested on: Staphylococcus aureus, MRSA ST5 (2001); experiment: MIC, NCCLS/CLSI guidelines (Example 5), strain D; settings: relative to wildtype Plectasin; average of two independent experiments
Method: as §1, §2, §3, §4

[5] = tested on: Staphylococcus aureus, MRSA ST80 (2003); experiment: MIC, NCCLS/CLSI guidelines (Example 5), strain E; settings: relative to wildtype Plectasin; average of two independent experiments
Method: as §1, §2, §3, §4

[6] = tested on: panel of 6 different strains of Staphylococcus aureus; experiment: Average MIC, NCCLS/CLSI guidelines using caMHB (Example 6); settings: average over 6 S. aureus strains, duplicate; MIC above 32 counted as 64; read after 18-24 hours at 37° C.
Summary of the method: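 MICs were determined by broth dilution per NCCLS/CLSI in caMHB against six S. aureus strains (four MSSA, two MRSA), with peptides at 0.03–32 microgram/mL, read after 18-24 h at 37° C. Each was tested in duplicate and the two results averaged; MICs above 32 micrograms/mL were counted as 64.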

Row | Substance | Relative MIC, strain A [1] | Relative MIC, strain B [2] | Relative MIC, strain C [3] | Relative MIC, strain D [4] | Relative MIC, strain E [5] | Average MIC [6] [micrograms/mL]
1 | N5A + D9S + M13L + N17T: variant of Plectasin (SEQ ID NO: 1) (GFGCAGPWSEDDLQCHTHCKSIKGYKGGYCAKGGFVCKCY) | 0 (>100% of Plectasin wildtype MIC) | 3 (<50% of Plectasin wildtype MIC) | 3 (<50% of Plectasin wildtype MIC) | 2 (50-80% of Plectasin wildtype MIC) | 3 (<50% of Plectasin wildtype MIC) | 6
2 | N5G + D9S + M13L + N17Q + A31T: variant of Plectasin (SEQ ID NO: 1) (GFGCGGPWSEDDLQCHQHCKSIKGYKGGYCTKGGFVCKCY) | 3 (<50% of Plectasin wildtype MIC) | 3 (<50% of Plectasin wildtype MIC) | 3 (<50% of Plectasin wildtype MIC) | 3 (<50% of Plectasin wildtype MIC) | 3 (<50% of Plectasin wildtype MIC) | 3
3 | N5G + M13L: variant of Plectasin (SEQ ID NO: 1) (GFGCGGPWDEDDLQCHNHCKSIKGYKGGYCAKGGFVCKCY) | 2 (50-80% of Plectasin wildtype MIC) | 3 (<50% of Plectasin wildtype MIC) | 3 (<50% of Plectasin wildtype MIC) | 3 (<50% of Plectasin wildtype MIC) | 3 (<50% of Plectasin wildtype MIC) | 4
4 | N5G + M13Y + N17K: variant of Plectasin (SEQ ID NO: 1) (GFGCGGPWDEDDYQCHKHCKSIKGYKGGYCAKGGFVCKCY) | 3 (<50% of Plectasin wildtype MIC) | 3 (<50% of Plectasin wildtype MIC) | 3 (<50% of Plectasin wildtype MIC) | 3 (<50% of Plectasin wildtype MIC) | 2 (50-80% of Plectasin wildtype MIC) | 5
5 | N5G + Q14K: variant of Plectasin (SEQ ID NO: 1) (GFGCGGPWDEDDMKCHNHCKSIKGYKGGYCAKGGFVCKCY) | 2 (50-80% of Plectasin wildtype MIC) | 2 (50-80% of Plectasin wildtype MIC) | 3 (<50% of Plectasin wildtype MIC) | 0 (>100% of Plectasin wildtype MIC) | 2 (50-80% of Plectasin wildtype MIC) | 9
6 | N5R + M13Y + N17R: variant of Plectasin (SEQ ID NO: 1) (GFGCRGPWDEDDYQCHRHCKSIKGYKGGYCAKGGFVCKCY) | 3 (<50% of Plectasin wildtype MIC) | 3 (<50% of Plectasin wildtype MIC) | 3 (<50% of Plectasin wildtype MIC) | 3 (<50% of Plectasin wildtype MIC) | 3 (<50% of Plectasin wildtype MIC) | 1
7 | N5S + D9A + K26R: variant of Plectasin (SEQ ID NO: 1) (GFGCSGPWAEDDMQCHNHCKSIKGYRGGYCAKGGFVCKCY) | 3 (<50% of Plectasin wildtype MIC) | 3 (<50% of Plectasin wildtype MIC) | 3 (<50% of Plectasin wildtype MIC) | 3 (<50% of Plectasin wildtype MIC) | 3 (<50% of Plectasin wildtype MIC) | 3
